Data reported in ChEMBL document CHEMBL6109104, “Synthesis and antibacterial evaluations of novel vancomycin analogues targeting bacteria membrane to combat Gram-negative infections” (Eur J Med Chem, 2025).
In brackets after ≈: the same amount, converted by molar mass.

What was measured:
Type in all cases: functional
Conditions in all cases: time 16-18 hrs
Acinetobacter baumannii [1] = assay: Antibacterial activity against Acinetobacter baumannii ATCC19606 incubated for 16 to 18 hrs by muller hinton broth based microplate reader analysis
Acinetobacter baumannii [2] = assay: Antibacterial activity against Acinetobacter baumannii ATCC17978 incubated for 16 to 18 hrs by muller hinton broth based microplate reader analysis
Staphylococcus aureus [3] = assay: Antibacterial activity against methicillin-resistant Staphylococcus aureus USA300 incubated for 16 to 18 hrs by muller hinton broth based microplate reader analysis
Escherichia coli [4] = assay: Antibacterial activity against Escherichia coli ATCC25922 incubated for 16 to 18 hrs by muller hinton broth based microplate reader analysis
Staphylococcus aureus [5] = assay: Antibacterial activity vancomycin-intermediate resistant Staphylococcus aureus incubated for 16 to 18 hrs by muller hinton broth based microplate reader analysis
Escherichia coli [6] = assay: Antibacterial activity against Escherichia coli ATCC35150 incubated for 16 to 18 hrs by muller hinton broth based microplate reader analysis

Row | SMILES | MIC (Acinetobacter baumannii [1]) [µg/mL] | MIC (Acinetobacter baumannii [2]) [µg/mL] | MIC (Staphylococcus aureus [3]) [µg/mL] | MIC (Escherichia coli [4]) [µg/mL] | MIC (Staphylococcus aureus [5]) [µg/mL] | MIC (Escherichia coli [6]) [µg/mL]
1 | CN[C@H](CC(C)C)C(=O)N[C@H]1C(=O)N[C@@H](CC(N)=O)C(=O)N[C@H]2C(=O)N[C@H]3C(=O)N[C@H](C(=O)N[C@H](C(=O)O)c4cc(O)cc(O)c4-c4cc3ccc4O)[C@H](O)c3ccc(c(Cl)c3)Oc3cc2cc(c3O[C@@H]2O[C@H](CO)[C@@H](O)[C@H](O)[C@H]2O[C@H]2C[C@](C)(NC(=O)CCCCCCCCC[n+]3ccc(C)cc3)[C@H](O)[C@H](C)O2)Oc2ccc(cc2Cl)[C@H]1O.[Br-] | > 128 | > 128 | 8 | > 128 | > 128 | > 128
2 | CN[C@H](CC(C)C)C(=O)N[C@H]1C(=O)N[C@@H](CC(N)=O)C(=O)N[C@H]2C(=O)N[C@H]3C(=O)N[C@H](C(=O)N[C@H](C(=O)O)c4cc(O)cc(O)c4-c4cc3ccc4O)[C@H](O)c3ccc(c(Cl)c3)Oc3cc2cc(c3O[C@@H]2O[C@H](CO)[C@@H](O)[C@H](O)[C@H]2O[C@H]2C[C@](C)(NC(=O)CCCCCCCCCCC[n+]3ccc(C)cc3)[C@H](O)[C@H](C)O2)Oc2ccc(cc2Cl)[C@H]1O.[Br-] | > 128 | > 128 | 4 | > 128 | > 128 | > 128
3 | CCCCCCCCCC[N+]1(C)CCN(C(=O)c2ccc(CN[C@@]3(C)C[C@H](O[C@H]4[C@H](Oc5c6cc7cc5Oc5ccc(cc5Cl)[C@@H](O)[C@@H](NC(=O)[C@@H](CC(C)C)NC)C(=O)N[C@@H](CC(N)=O)C(=O)N[C@H]7C(=O)N[C@H]5C(=O)N[C@H](C(=O)N[C@H](C(=O)O)c7cc(O)cc(O)c7-c7cc5ccc7O)[C@H](O)c5ccc(c(Cl)c5)O6)O[C@H](CO)[C@@H](O)[C@@H]4O)O[C@@H](C)[C@H]3O)cc2)CC1.[Br-] | 64 | > 128 | 1 | 64 | 64 | 64
4 | CN[C@H](CC(C)C)C(=O)N[C@H]1C(=O)N[C@@H](CC(N)=O)C(=O)N[C@H]2C(=O)N[C@H]3C(=O)N[C@H](C(=O)N[C@H](C(=O)N4CCN(C)CC4)c4cc(O)cc(O)c4-c4cc3ccc4O)[C@H](O)c3ccc(c(Cl)c3)Oc3cc2cc(c3O[C@@H]2O[C@H](CO)[C@@H](O)[C@H](O)[C@H]2O[C@H]2C[C@](C)(N)[C@H](O)[C@H](C)O2)Oc2ccc(cc2Cl)[C@H]1O (stereo in doubt) | > 128 | > 128 | 4 (≈ 2.61 µM) | > 128 | > 128 | > 128
5 | CN[C@H](CC(C)C)C(=O)N[C@H]1C(=O)N[C@@H](CC(N)=O)C(=O)N[C@H]2C(=O)N[C@H]3C(=O)N[C@H](C(=O)N[C@H](C(=O)O)c4cc(O)cc(O)c4-c4cc3ccc4O)[C@H](O)c3ccc(c(Cl)c3)Oc3cc2cc(c3O[C@@H]2O[C@H](CO)[C@@H](O)[C@H](O)[C@H]2O[C@H]2C[C@](C)(NC(=O)CCCCCCC[n+]3ccc(C)cc3)[C@H](O)[C@H](C)O2)Oc2ccc(cc2Cl)[C@H]1O.[Br-] | > 128 | > 128 | 8 | > 128 | > 128 | > 128
6 | CCCCCCCCCCCCCC[N+]1(C)CCN(C(=O)c2ccc(CN[C@@]3(C)C[C@H](O[C@H]4[C@H](Oc5c6cc7cc5Oc5ccc(cc5Cl)[C@@H](O)[C@@H](NC(=O)[C@@H](CC(C)C)NC)C(=O)N[C@@H](CC(N)=O)C(=O)N[C@H]7C(=O)N[C@H]5C(=O)N[C@H](C(=O)N[C@H](C(=O)O)c7cc(O)cc(O)c7-c7cc5ccc7O)[C@H](O)c5ccc(c(Cl)c5)O6)O[C@H](CO)[C@@H](O)[C@@H]4O)O[C@@H](C)[C@H]3O)cc2)CC1.[Br-] | > 128 | > 128 | 2 | > 128 | 64 | > 128
7 | CN[C@H](CC(C)C)C(=O)N[C@H]1C(=O)N[C@@H](CC(N)=O)C(=O)N[C@H]2C(=O)N[C@H]3C(=O)N[C@H](C(=O)N[C@H](C(=O)O)c4cc(O)cc(O)c4-c4cc3ccc4O)[C@H](O)c3ccc(c(Cl)c3)Oc3cc2cc(c3O[C@@H]2O[C@H](CO)[C@@H](O)[C@H](O)[C@H]2O[C@H]2C[C@](C)(NC(=O)CCCCCCCCCCC[n+]3cccc(O)c3)[C@H](O)[C@H](C)O2)Oc2ccc(cc2Cl)[C@H]1O.[Br-] | > 128 | > 128 | 8 | > 128 | 64 | > 128
8 | CCCCCCCCCCCC[n+]1ccc(C(=O)NCCNC(=O)[C@@H]2NC(=O)[C@H]3NC(=O)[C@H](NC(=O)[C@@H]4NC(=O)[C@H](CC(N)=O)NC(=O)[C@H](NC(=O)[C@@H](CC(C)C)NC)[C@H](O)c5ccc(c(Cl)c5)Oc5cc4cc(c5O[C@@H]4O[C@H](CO)[C@@H](O)[C@H](O)[C@H]4O[C@H]4C[C@](C)(N)[C@H](O)[C@H](C)O4)Oc4ccc(cc4Cl)[C@H]3O)c3ccc(O)c(c3)-c3c(O)cc(O)cc32)cc1.[Br-] (stereo in doubt) | 16 | 64 | 2 | > 128 | 64 | > 128
9 | CCCCCCCCCCCCCCCCCC[N+]1(C)CCN(C(=O)[C@H]2NC(=O)[C@H]3NC(=O)[C@H](NC(=O)[C@@H]4NC(=O)[C@H](CC(N)=O)NC(=O)[C@H](NC(=O)[C@@H](CC(C)C)NC)[C@H](O)c5ccc(c(Cl)c5)Oc5cc4cc(c5O[C@@H]4O[C@H](CO)[C@@H](O)[C@H](O)[C@H]4O[C@H]4C[C@](C)(N)[C@H](O)[C@H](C)O4)Oc4ccc(cc4Cl)[C@H]3O)c3ccc(O)c(c3)-c3c(O)cc(O)cc32)CC1.[Br-] (stereo in doubt) | > 128 | > 128 | 1 | > 128 | 64 | > 128
10 | CCCCCCCCCCCC[N+]1(C)CCN(C(=O)c2ccc(CN[C@@]3(C)C[C@H](O[C@H]4[C@H](Oc5c6cc7cc5Oc5ccc(cc5Cl)[C@@H](O)[C@@H](NC(=O)[C@@H](CC(C)C)NC)C(=O)N[C@@H](CC(N)=O)C(=O)N[C@H]7C(=O)N[C@H]5C(=O)N[C@H](C(=O)N[C@H](C(=O)O)c7cc(O)cc(O)c7-c7cc5ccc7O)[C@H](O)c5ccc(c(Cl)c5)O6)O[C@H](CO)[C@@H](O)[C@@H]4O)O[C@@H](C)[C@H]3O)cc2)CC1.[Br-] | 16 | 32 | 2 | > 128 | 64 | > 128
11 | CN[C@H](CC(C)C)C(=O)N[C@H]1C(=O)N[C@@H](CC(N)=O)C(=O)N[C@H]2C(=O)N[C@H]3C(=O)N[C@H](C(=O)N[C@H](C(=O)O)c4cc(O)cc(O)c4-c4cc3ccc4O)[C@H](O)c3ccc(c(Cl)c3)Oc3cc2cc(c3O[C@@H]2O[C@H](CO)[C@@H](O)[C@H](O)[C@H]2O[C@H]2C[C@](C)(NC(=O)CCCCCCCCCCC[n+]3ccccc3)[C@H](O)[C@H](C)O2)Oc2ccc(cc2Cl)[C@H]1O.[Br-] | > 128 | > 128 | 4 | > 128 | 64 | > 128
12 | CN[C@H](CC(C)C)C(=O)N[C@H]1C(=O)N[C@@H](CC(N)=O)C(=O)N[C@H]2C(=O)N[C@H]3C(=O)N[C@H](C(=O)N[C@H](C(=O)O)c4cc(O)cc(O)c4-c4cc3ccc4O)[C@H](O)c3ccc(c(Cl)c3)Oc3cc2cc(c3O[C@@H]2O[C@H](CO)[C@@H](O)[C@H](O)[C@H]2O[C@H]2C[C@](C)(NC(=O)CCCCCCCCCCC[n+]3ccc(N)cc3)[C@H](O)[C@H](C)O2)Oc2ccc(cc2Cl)[C@H]1O.O=C(O)C(F)(F)F.[Br-] | > 128 | > 128 | 1 | > 128 | 32 | > 128
